Results as given in ChEMBL document CHEMBL5241092, “The antibacterial activity of fluoroquinolone derivatives: An update (2018-2021)” (2021).

Key:
[1] = system: Staphylococcus aureus; experiment: Antibacterial activity against methicillin resistant Staphylococcus aureus 1; type: functional
[2] = system: Staphylococcus aureus; experiment: Antibacterial activity against methicillin resistant Staphylococcus aureus 3; type: functional
[3] = system: Staphylococcus aureus; experiment: Antibacterial activity against methicillin resistant Staphylococcus aureus 2; type: functional
[4] = system: Staphylococcus aureus; experiment: Antibacterial activity against Staphylococcus aureus; type: functional
[5] = system: Staphylococcus aureus; experiment: Antibacterial activity against methicillin resistant Staphylococcus aureus; type: functional
[6] = system: Bacillus subtilis; experiment: Antibacterial activity against Bacillus subtilis; type: functional
[7] = system: Escherichia coli; experiment: Antibacterial activity against Escherichia coli; type: functional
[8] = system: Pseudomonas aeruginosa; experiment: Antibacterial activity against Pseudomonas aeruginosa; type: functional
[9] = system: Salmonella enteritidis; experiment: Antibacterial activity against Salmonella enteritidis; type: functional, Salmonella enterica subsp. enterica serovar Enteritidis; conditions: Salmonella enterica
[10] = system: Staphylococcus aureus; experiment: Antibacterial activity against methicillin resistant Staphylococcus aureus clinical strain; type: functional
[11] = system: Staphylococcus aureus; experiment: Antibacterial activity against methicillin resistant Staphylococcus aureus reference strain; type: functional
[12] = system: Listeria monocytogenes; experiment: Antibacterial activity against Listeria monocytogenes; type: functional
[13] = system: Klebsiella pneumoniae; experiment: Antibacterial activity against Klebsiella pneumoniae; type: functional
[14] = system: Lactobacillus acidophilus; experiment: Antibacterial activity against Lactobacillus acidophilus; type: functional
[15] = system: Enterococcus faecalis; experiment: Antibacterial activity against Enterococcus faecalis; type: functional
[16] = system: Yersinia pseudotuberculosis; experiment: Antibacterial activity against Yersinia pseudotuberculosis; type: functional
[17] = system: Bacillus cereus; experiment: Antibacterial activity against Bacillus cereus; type: functional
[18] = system: Staphylococcus epidermidis; experiment: Antibacterial activity against Staphylococcus epidermidis; type: functional
[19] = system: Clostridioides difficile; experiment: Antibacterial activity against Clostridioides difficile; type: functional
[20] = system: Vibrio cholerae; experiment: Antibacterial activity against Vibrio cholerae; type: functional
[21] = Antibacterial activity against Salmonella typhi; type: functional, Salmonella enterica subsp. enterica serovar Typhimurium; conditions: Salmonella enterica
[22] = system: Citrobacter freundii; experiment: Antibacterial activity against Citrobacter freundii; type: functional
[23] = system: Shigella flexneri; experiment: Antibacterial activity against Shigella flexneri; type: functional

CCn1cc(C(=O)O)c(=O)c2cc(F)c(N3CCN(Cc4nnc(-c5ccccc5Cl)o4)CC3)cc21
0.25 µg/mL: MIC [1] | MIC [2] | MIC [3] | MIC [4]

O=C(O)c1cn(-c2ccc(F)cc2)c2cc(N3CCN(Cc4nc5ccc(Cl)cc5c(=O)[nH]4)CC3)c(F)cc2c1=O
0.125 µg/mL: MIC [5] | MIC [4]

O=C(O)c1cn(C2CC2)c2cc(N3CCN(Cn4nc(-c5cccnc5)oc4=S)CC3)c(F)cc2c1=O
0.031 µg/mL: MIC [6] | MIC [7] | MIC [8] | MIC [4]

CCn1cc(C(=O)O)c(=O)c2cc(F)c(N3CCN(C(=O)CN4C(=O)S/C(=C\c5ccccc5)C4=O)CC3)cc21
0.5 µg/mL: MIC [9] | MIC [7] | MIC [8]

CCn1cc(C(=O)O)c(=O)c2cc(F)c(N3CCN(C(=O)CN4C(=O)S/C(=C\c5ccc(OC)cc5)C4=O)CC3)cc21
0.25 µg/mL: MIC [9] | MIC [7] | MIC [8]

CCn1cc(C(=O)O)c(=O)c2cc(F)c(N3CCN(Cc4nnc(-c5ccc(OC)cc5)o4)CC3)cc21
0.25 µg/mL: MIC [1] | MIC [2] | MIC [3] | MIC [4]

O=C(O)c1cn(C2CC2)c2cc(N3CCN(Cc4cc5ccccc5cc4O)CC3)c(F)cc2c1=O
0.2 µg/mL: MIC [10]
0.08 µg/mL: MIC [11]

COc1c(N2C[C@H]3CCCN(C(=O)c4ccc(C)cc4)[C@H]3C2)c(F)cc2c(=O)c(C(=O)O)cn(C3CC3)c12
≤ 1.23 µg/mL: MIC [12] | MIC [15] | MIC [17] | MIC [4]
< 1.23 µg/mL: MIC [13] | MIC [14] | MIC [7] | MIC [8] | MIC [16]

COc1c(N2CCN(C(=O)Cn3cc(CN4C(=O)C(=O)c5cc(F)ccc54)nn3)C(C)C2)c(F)cc2c(=O)c(C(=O)O)cn(C3CC3)c12 (stereo not given)
≤ 0.03 µg/mL: MIC [1] | MIC [2] | MIC [3] | MIC [4]

CC(=O)C(C(C)=O)C(=O)c1cn(C2CC2)c2cc(N3CCN(/N=N/c4nc(C)cc(C)n4)CC3)c(F)cc2c1=O
0.015 µg/mL: MIC [6] | MIC [18] | MIC [4]

Cc1c(-c2cnc(N)c(C#N)c2)c(F)cc2c(=O)c(C(=O)O)cn(C3CC3)c12
0.125 µg/mL: MIC50 [19]
0.5 µg/mL: MIC90 [19]

CCOc1cc(OCC)nc(/N=N/N2CCN(c3cc4c(cc3F)c(=O)c(C(=O)C(C(=O)OC)C(=O)OC)cn4C3CC3)CC2)n1
0.015 µg/mL: MIC [6] | MIC [18] | MIC [4]

CCn1cc(C(=O)O)c(=O)c2cc(F)c(N3CCN(C(=O)CN4C(=O)S/C(=C\c5ccc(Cl)cc5Cl)C4=O)CC3)cc21
0.25 µg/mL: MIC [9] | MIC [7] | MIC [8]

COc1c(N2C[C@H]3CCCN(C(=O)c4ccc([N+](=O)[O-])cc4)[C@H]3C2)c(F)cc2c(=O)c(C(=O)O)cn(C3CC3)c12
≤ 1.23 µg/mL: MIC [12] | MIC [15] | MIC [17] | MIC [4]
< 1.23 µg/mL: MIC [13] | MIC [14] | MIC [7] | MIC [8] | MIC [16]

CCn1cc(C(=O)O)c(=O)c2cc(F)c(N3CCN(C(=O)CN4C(=O)S/C(=C\c5ccc(F)cc5)C4=O)CC3)cc21
0.25 µg/mL: MIC [9] | MIC [7] | MIC [8]

COc1c(N2C[C@H]3CCCN(C(=O)c4ccc(Br)cc4)[C@H]3C2)c(F)cc2c(=O)c(C(=O)O)cn(C3CC3)c12
< 1.23 µg/mL: MIC [13] | MIC [14] | MIC [7] | MIC [8] | MIC [16]
≤ 1.23 µg/mL: MIC [12] | MIC [15] | MIC [17] | MIC [4]

COc1c(N2CCN(/N=N/c3nc(C)cc(C)n3)CC2)c(F)cc2c(=O)c(C(=O)C(C(C)=O)C(C)=O)cn(C3CC3)c12
0.015 µg/mL: MIC [6] | MIC [18] | MIC [4]

CCn1cc(C(=O)O)c(=O)c2cc(F)c(N3CCN(C(=O)CN4C(=O)S/C(=C\c5ccc(Cl)cc5)C4=O)CC3)cc21
0.25 µg/mL: MIC [9] | MIC [7] | MIC [8]

CCn1cc(C(=O)O)c(=O)c2cc(F)c(N3CCN(C(=O)CN4C(=O)S/C(=C\c5ccc(N(C)C)cc5)C4=O)CC3)cc21
0.25 µg/mL: MIC [9] | MIC [7] | MIC [8]

O=C(O)c1cn(-c2ccc(F)cc2)c2cc(N3CCN(Cc4nc5cc(Cl)ccc5c(=O)[nH]4)CC3)c(F)cc2c1=O
0.125 µg/mL: MIC [5] | MIC [4]

COc1ccc(C(=O)N2CCC[C@@H]3CN(c4c(F)cc5c(=O)c(C(=O)O)cn(C6CC6)c5c4OC)C[C@@H]32)cc1
< 1.23 µg/mL: MIC [13] | MIC [14] | MIC [7] | MIC [8] | MIC [16]
≤ 1.23 µg/mL: MIC [12] | MIC [15] | MIC [17] | MIC [4]

O=C(O)c1cn(C2CC2)c2cc(N3CCN(Cc4nc5cc(Cl)ccc5c(=O)[nH]4)CC3)c(F)cc2c1=O
0.016 µg/mL: MIC [5] | MIC [4]

COc1ccc2nc(CN3CCN(c4cc5c(cc4F)c(=O)c(C(=O)O)cn5-c4ccc(F)cc4)CC3)[nH]c(=O)c2c1
0.125 µg/mL: MIC [5] | MIC [4]

O=C(O)c1cn(-c2ccc(F)cc2)c2cc(N3CCN(Cc4nc5ccccc5c(=O)[nH]4)CC3)c(F)cc2c1=O
0.125 µg/mL: MIC [5] | MIC [4]

O=C(O)c1cn(C2CC2)c2cc(N3CCN(Cc4c(O)ccc5ccccc45)CC3)c(F)cc2c1=O
0.012 µg/mL: MIC [13] | MIC [7] | MIC [10] | MIC [8] | MIC [11]

O=C(O)c1cn(C2CC2)c2cc(N3CCN(CN4c5ccccc5C(=O)N(c5ccc(Cl)cc5)C4c4ccccc4)CC3)c(F)cc2c1=O (stereo not given)
0.1 µg/mL: MIC [20] | MIC [13] | MIC [8] | MIC [18] | MIC [21] | MIC [4] | MIC [22] | MIC [23]

O=C(O)c1cn(-c2ccc(F)cc2)c2cc(N3CCN(C/C(=N/O)c4ccccc4)CC3)c(F)cc2c1=O
< 0.125 µg/mL: MIC [6] | MIC [18] | MIC [4]

COc1ccc2nc(CN3CCN(c4cc5c(cc4F)c(=O)c(C(=O)O)cn5C4CC4)CC3)[nH]c(=O)c2c1
0.016 µg/mL: MIC [5] | MIC [4]

CCOc1cc(OCC)nc(/N=N/N2CCN(c3c(F)cc4c(=O)c(C(=O)C(C(C)=O)C(=O)OC)cn(C5CC5)c4c3OC)CC2)n1 (stereo not given)
0.015 µg/mL: MIC [6] | MIC [18] | MIC [4]

O=C(O)c1cn(C2CC2)c2cc(N3CCN(Cn4nc(-c5ccccn5)oc4=S)CC3)c(F)cc2c1=O
0.031 µg/mL: MIC [6] | MIC [7] | MIC [8] | MIC [4]

O=C(O)c1cn(C2CC2)c2cc(N3CCN(Cc4nc5ccc(Cl)cc5c(=O)[nH]4)CC3)c(F)cc2c1=O
0.016 µg/mL: MIC [5] | MIC [4]

COc1cc(C=O)cc(CN2CCN(c3cc4c(cc3F)c(=O)c(C(=O)O)cn4C3CC3)CC2)c1O
0.012 µg/mL: MIC [13] | MIC [7] | MIC [10] | MIC [8] | MIC [11]

Cc1ncc([N+](=O)[O-])n1CCO [METRONIDAZOLE]
4 µg/mL: MIC90 [19]
2 µg/mL: MIC50 [19]

CCn1cc(C(=O)O)c(=O)c2cc(F)c(N3CCNCC3)cc21 [NORFLOXACIN]
0.0625 µg/mL: MIC [9]
2.4 µg/mL: MIC [21]
< 0.24 µg/mL: MIC [7] | MIC [8] | MIC [15] | MIC [16] | MIC [17] | MIC [4]

O=C(O)c1cn(-c2ccc(F)cc2)c2cc(N3CCNCC3)c(F)cc2c1=O [SARAFLOXACIN]
< 0.125 µg/mL: MIC [6] | MIC [18] | MIC [4]

CN[C@H](CC(C)C)C(=O)N[C@H]1C(=O)N[C@@H](CC(N)=O)C(=O)N[C@H]2C(=O)N[C@H]3C(=O)N[C@H](C(=O)N[C@H](C(=O)O)c4cc(O)cc(O)c4-c4cc3ccc4O)[C@H](O)c3ccc(c(Cl)c3)Oc3cc2cc(c3O[C@@H]2O[C@H](CO)[C@@H](O)[C@H](O)[C@H]2O[C@H]2C[C@](C)(N)[C@H](O)[C@H](C)O2)Oc2ccc(cc2Cl)[C@H]1O [VANCOMYCIN]
2 µg/mL: MIC50 [19]
4 µg/mL: MIC90 [19]
